In patent publication US8501924B2, “Nucleophosmin protein (NPM) mutants, corresponding gene sequences and uses thereof” (priority 2004, dated 2013):
“Also recorded” adds a separate entry of the source.

Legend:
Crm1 [1] = target: T1, Crm1 (Mus musculus, UniProt Q6P5F9); assay: Inhibition of Crm1-dependent nuclear exportation in NIH-3T3 cells transfected with eGFP-NPM constructs; type: cell-based, murine; conditions: for sub-cellular localization of NPM mutant proteins after treatment (confocal microscopy): transfected NIH3T3 cells (HI299 or NIH3T3), leptomycin B 20 ng/ml
T1 construct: endogenous in cells; host or cells: NIH-3T3 cells, transfected only with eGFP-NPM reporter constructs
Description: NIH-3T3 cells were transfected using Lipofectamin 2000 (Invitrogen Carlsbad, Calif., USA) following the manufacturer instructions. After 24 hours, the cells grown on the slide were incubated with cycloeximide (Merck Biosciences Ltd, Nottingham UK) 10 micro grams/ml (30 minutes) and leptomycin B (Merck Biosciences Ltd, Nottingham UK) 20 ng/ml (5 hours), or other Crm1 inhibitors such as ratjadons A and C (Alexis Biochemicals, Carlsbad, Calif., USA) 20 ng/ml (5 hours).
The cells were fixed in 4% paraformaldehyde (10 minutes) for immunofluorescence and confocal microscope analysis.
For “time course” experiments, transfected cells were transferred inside an Attofluor chamber (Molecular Probes, Eugene, Oreg., USA) and were observed using a MRC-1024 confocal apparatus (Biorad Cambridge, UK) assembled on an Olympus IMT-2 microscope. The images of a single section were recorded before and after the addition of leptomicin B, at 60 second intervals, using the time-series function of Laser-Sharp program (BioRad). The excitation wavelength was 488 nm and images were detected using a filter from 505 to 550 nm on the PMT2.
The images were processed and analysed using the well known ImageJ program (Rasband WS, Image J, U.S. National Institutes of Health, Bethesda, Md., USA, http://rsb.info.nih.gov/ij/, 1997-2005).
For western-blotting analyses of the sub-cellular distribution of GFP-NPM mutant A protein, NIH-3T3 cells transfected with GFP vector or with GFP-NPM mutant A, as described above, were incubated with leptomicin B 20 ng/ml (or with methanol as control) without cycloeximide for 3 or 6 hours. Then cells were harvested, washed with PBS and lysed in hypotonic buffer according to the method of Schreiber et al. (1989). The supernatant was preserved as cytoplasmic fraction. The pellet, containing nuclei, was again washed with the hypotonic buffer, then solubilised in a hypertonic buffer and boiled in a solution containing SDS before loading.
Equivalent dilutions (with the same cell number) of cytoplasmic and nuclear fractions were loaded, blotted on nitrocellulose and incubated with an anti-GFP monoclonal antibody (Roche, Indianapolis, Ind., USA) for Western-blot analysis of the distribution of GFP-NPM mutant A.

Crm1 [2] = target: T2, Crm1 (Homo sapiens, UniProt O14980); assay: Inhibition of Crm1-dependent nuclear exportation in transfected H1299 cells; type: cell-based; conditions: HI299 cells
Description: The H1299 cells were seeded on the surface of six-well plates 24 hours before transfection. 5 μg of expression vector encoding for wild type HA-NPM, GFP-NPM-mutant A, or both, were transfected using the precipitation method with calcium-phosphate. After 24 hours, the cells were treated with 20 nM leptomycin B, a Crml specific inhibitor (Sigma, St. Louis, Mo., USA) for 8 hours or not treated, respectively. The cells then were fixed in 4% paraformaldehyde for the immunofluorescence study.
The DAPI staining was used to visualise nucleuses of H1299 cells transfected with the GFP-NPM-mutant A and with GFP-NPM wt. For Flag-HA constructs, the fixed cells were made permeable with 0.2% Triton-X 100 (10 minutes) followed by blocking with 10% anti-goat serum (30 minutes). Then primary anti-HA antibody was added (1:1000, Roche Indianapolis, Ind., USA) for 1 hour followed by incubation for 30 minutes with the secondary Alexa-568 antibody (1:1000, Molecular Probes, Oregon, USA). The images were taken using a digital camera with the Spot 4.09 program (Diagnostic Instruments, Sterling Heights, Mich., USA).

Crm1 [3] = target: T2, Crm1; assay: Nuclear re-localization of mutant NPM in OCI/AML3 cells; type: cell-based; conditions: OCI/AML3, mutation A, LMB 20 ng/ml
Crm1 [4] = target: T2, Crm1; assay: Nuclear re-localization of NPM in leukaemic cells of NPMc+ AML patients (mutation A); type: cell-based; conditions: NPMc+ AML patient cells, leptomycin B 20 ng/ml
Description: Cells deriving from two patients with NPMc+AML (carrying the mutation A) and from OCI/AML3 cellular line were harvested in medium (10^6 cell/ml in 24-well plates) and incubated at 37° C. with 5% CO2 […]. After the incubation overnight with leptomycin B (20 ng/ml), the cells were washed with PBS and centrifuged. The cell pellet was fixed in B5 and paraffin for the immunostaining.
The NPM coloration of paraffin embedded sections of AML cases containing the mutation A was carried out with monoclonal anti-NPM antibodies followed by a Alexa 488 conjugated secondary (Molecular Probes, Oregon, USA); the nuclei were contra-stained with propidium iodide. The images were taken with a confocal microscope Zeiss LSM 510 (Carl Zeiss, Jena, Del.), using laser excitation wavelengths at 488 nm (for ALexa 488), 543 nm (for Texas Red and the propidium iodide) and 633 nm (for TO-PRO-3), respectively. The laser intensity tuning, diameter of pinholes, and configuration of the light detection were set to achieve the best signal/noise ratio and avoid fluorescence crossover. The images were then transferred to a SGI Octane workstation (Silicon graphics, Mountain View, Calif., USA) for further elaboration; 3D reconstruction was made with the shade or iso-surface method using the Imaris program (Bitplane, Zurich, CH).

[5] = NIH-3T3 cells, with and without LMB

T2 sequence (O14980 whole entry): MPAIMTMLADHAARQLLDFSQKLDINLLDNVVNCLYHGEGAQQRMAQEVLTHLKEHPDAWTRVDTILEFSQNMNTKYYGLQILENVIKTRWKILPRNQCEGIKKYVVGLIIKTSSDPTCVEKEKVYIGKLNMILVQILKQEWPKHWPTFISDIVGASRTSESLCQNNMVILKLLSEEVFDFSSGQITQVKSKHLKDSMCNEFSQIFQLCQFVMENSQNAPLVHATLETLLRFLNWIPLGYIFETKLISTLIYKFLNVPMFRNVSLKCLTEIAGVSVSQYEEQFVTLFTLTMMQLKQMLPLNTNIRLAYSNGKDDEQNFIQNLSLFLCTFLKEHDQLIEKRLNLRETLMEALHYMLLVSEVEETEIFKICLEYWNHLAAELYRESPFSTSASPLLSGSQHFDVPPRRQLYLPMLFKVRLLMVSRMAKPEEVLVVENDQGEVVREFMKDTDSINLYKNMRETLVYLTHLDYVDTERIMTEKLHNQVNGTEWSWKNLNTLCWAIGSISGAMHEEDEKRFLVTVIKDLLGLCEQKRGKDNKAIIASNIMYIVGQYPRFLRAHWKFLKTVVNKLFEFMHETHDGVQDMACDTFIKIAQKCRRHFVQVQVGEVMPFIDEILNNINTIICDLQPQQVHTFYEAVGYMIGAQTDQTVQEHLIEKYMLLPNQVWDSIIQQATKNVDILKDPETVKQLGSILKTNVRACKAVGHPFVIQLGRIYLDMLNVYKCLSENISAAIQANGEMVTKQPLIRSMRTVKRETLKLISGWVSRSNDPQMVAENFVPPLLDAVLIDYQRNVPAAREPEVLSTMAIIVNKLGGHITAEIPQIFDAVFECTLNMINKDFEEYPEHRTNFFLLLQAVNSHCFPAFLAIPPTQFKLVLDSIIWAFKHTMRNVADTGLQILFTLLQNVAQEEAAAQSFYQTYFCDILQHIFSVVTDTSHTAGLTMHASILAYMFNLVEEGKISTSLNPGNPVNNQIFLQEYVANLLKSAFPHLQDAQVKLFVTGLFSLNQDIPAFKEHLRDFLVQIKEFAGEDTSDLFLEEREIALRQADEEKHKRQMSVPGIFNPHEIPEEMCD
T1 sequence (Q6P5F9 whole entry): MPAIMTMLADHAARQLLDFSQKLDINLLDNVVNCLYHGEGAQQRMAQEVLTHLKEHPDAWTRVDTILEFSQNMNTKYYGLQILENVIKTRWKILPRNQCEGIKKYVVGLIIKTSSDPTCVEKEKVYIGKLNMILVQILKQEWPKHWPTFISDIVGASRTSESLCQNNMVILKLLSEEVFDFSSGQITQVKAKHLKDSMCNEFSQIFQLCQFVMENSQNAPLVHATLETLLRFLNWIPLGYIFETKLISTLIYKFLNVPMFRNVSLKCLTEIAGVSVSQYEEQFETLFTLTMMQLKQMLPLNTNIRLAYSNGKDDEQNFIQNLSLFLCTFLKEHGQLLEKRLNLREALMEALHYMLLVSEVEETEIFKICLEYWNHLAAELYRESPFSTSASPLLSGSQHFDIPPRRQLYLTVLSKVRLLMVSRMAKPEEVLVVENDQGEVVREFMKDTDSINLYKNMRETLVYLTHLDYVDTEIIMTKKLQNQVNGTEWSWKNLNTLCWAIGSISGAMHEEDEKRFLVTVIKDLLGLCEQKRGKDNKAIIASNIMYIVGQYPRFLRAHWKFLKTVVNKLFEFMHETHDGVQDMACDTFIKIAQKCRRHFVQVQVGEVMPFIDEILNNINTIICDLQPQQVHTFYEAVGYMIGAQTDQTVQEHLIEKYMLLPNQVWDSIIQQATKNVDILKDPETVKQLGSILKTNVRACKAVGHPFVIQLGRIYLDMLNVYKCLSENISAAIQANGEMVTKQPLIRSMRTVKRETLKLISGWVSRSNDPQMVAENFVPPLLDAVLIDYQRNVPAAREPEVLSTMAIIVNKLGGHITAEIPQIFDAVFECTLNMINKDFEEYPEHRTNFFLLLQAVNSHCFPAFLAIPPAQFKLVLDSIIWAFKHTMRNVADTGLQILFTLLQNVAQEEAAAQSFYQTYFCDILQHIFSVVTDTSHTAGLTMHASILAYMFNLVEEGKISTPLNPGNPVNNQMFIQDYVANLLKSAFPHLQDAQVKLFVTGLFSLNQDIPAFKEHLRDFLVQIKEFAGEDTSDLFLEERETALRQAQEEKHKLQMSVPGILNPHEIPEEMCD

For `CCC(=C/[C@H](C)C/C=C/C(C)=C/[C@@H](C)C(=O)[C@@H](C)[C@H](O)[C@@H](C)C/C(C)=C/C(=O)O)/C=C/[C@@H]1OC(=O)C=C[C@@H]1C` [Leptomycin B, leptomycin B], the “re-localization of type E NPM mutant (tryptophan 288 kept)” value (Crm1 [1]; NIH-3T3 cells, after Leptomicin B) was “not only at nucleoplasma but also at nucleolus level”, the “mutant type A re-localized in nucleus” value (Crm1 [1]; NIH-3T3 cells, eGFP-NPMmutA, 20 minutes after LMB) was “About 50%” and the “time for the whole re-localization process to be completed” value (Crm1 [1]; NIH-3T3 cells, eGFP-NPMmutA, LMB) was 1 h. For the same compound, the “Western blot sub-cellular distribution of GFP-NPM mutant A” value (Crm1 [1]; NIH-3T3 cells, leptomicin B 20 ng/ml, 3 or 6 hours, no cycloeximide) was “progressively accumulates in the pellet containing nucleuses”, the “eGFP-NPMmutA fluorescence in regions of interest over time” value (Crm1 [1]; NIH-3T3 cells, time course after addition of LMB) was “reduction of fluorescence in cytoplasm and Golgi area and concomitant fluorescence increase in nucleoplasm” and the “localization of GFP-NPMwt” value (Crm1 [1]; [5]) was “localizes in the nucleoli both in the presence and in the absence of LMB”. The “localization of NPM mut A no-NES” value (Crm1 [1]; [5]) was “localized in the nucleoplasm both in presence and in absence of LMB”, the “localization of mutant A with both tryptophans re-inserted (C288W+A290W)” value (Crm1 [1]; NIH-3T3 cells, with and without Leptomicin B) was “locates completely in nucleoli, independently from the presence of Leptomicin B” and the “sub-cellular localization of NPM mutant proteins after treatment (confocal microscopy)” value (Crm1 [1]; listed as LMB) was “repositions in nucleoplasm”. For the same compound, the “sub-cellular localization of NPM mutant proteins after treatment (confocal microscopy)” value (Crm1 [1]; listed as Leptomicin B) was “re-localized from the cytoplasmic to the nuclear compartment (nucleoplasm); also recorded: re-localized in the nucleus and, specifically, in nucleoplasm”, the “localization of eGFP NPM mutants A to D” value (Crm1 [2]; in the presence of LMB 20 nM, 8 hours) was “completely replaced in the nucleus in the presence of LMB” and the “localization of eGFP-NPMwt” value (Crm1 [2]; with and without LMB) was “localized in nucleoli both in the presence and in the absence of LMB”. For the same compound, the “NPM localization in OCI/AML3 cells (376 staining)” value (Crm1 [3]) was “re-localization of NPM in the nucleoplasm” and the “NPM localization in purified leukaemic cells (376 staining, confocal)” value (Crm1 [4]) was “NPM is in nucleus again”.
